According to patent US5304540A, “Pharmaceutical bacteriocin compositions and methods for using the same” (Applied Microbiology, Inc., priority 1993, dated 1994):
Read-outs that look alike come from different tables or passages of the source.

Key:
Helicobacter pylori = conditions: nisin 100 μg/ml where present
Escherichia coli = assay: Germicidal suspension assay, E. coli; assay type: cell-based; conditions: for % survival at 1 min: 37° C.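 For all read-outs here: surviving cells were scored as colonies on nutrient agar after 24 h at 37° C, survival given as percent of untreated controls.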
Method: E. coli cells from an overnight Trypticase soy nutrient agar (TSA) were resuspended to a density measured as an absorbance of 1.0 at 600 nm in sterile ddH2 O. The reaction of the cells with each of the bactericidal test formulations analyzed was started by addition of 30 μl of cells to 970 μl of test formulation. The reaction mixture was incubated at 37° C for at least 1 minute and then centrifuged in a microfuge for 1 minute. The cell pellet was washed by resuspension in 1 ml of neutralization buffer. (The neutralization buffer: 50 mM Tris-HCl, pH 7.0, 5 mM MgSO4, 20 mM CaCl2, 0.1 M NaCl and 0.1% gelatin was prepared by first making Tris buffer and adjusting the pH. The salts and gelatin were then added and the solution stirred with heat until the solution was clear. The solution was then autoclaved for 20 min. The neutralization buffer was used without dilution.) The cells were centrifuged in a microfuge for 1 minute and resuspended in 1 ml of neutralization buffer. The viable count was determined by spreading 100 μl of bacterial suspension and serial dilutions thereof in neutralization buffer on nutrient agar and scoring surviving colonies after 24 h at 37° C. Percent survival relative to untreated controls was calculated from the scored values.

[1] = 0.1% w/v succinate pH 3.5, nisin 100 μg/ml and/or EDTA 1.0 mM where present, initial 3.4 × 10^6 cfu/ml
[2] = 0.3% w/v succinate pH 3.5, nisin 100 μg/ml and/or EDTA 1.0 mM where present, initial 3.4 × 10^6 cfu/ml
[3] = 1.0% w/v succinate pH 3.5, nisin 100 μg/ml and/or EDTA 1.0 mM where present, initial 3.4 × 10^6 cfu/ml
[4] = 3.0% w/v succinate pH 3.5, nisin 100 μg/ml and/or EDTA 1.0 mM where present, initial 3.4 × 10^6 cfu/ml

In the case of `O=C(O)CN(CCN(CC(=O)O)CC(=O)O)CC(=O)O` [EDTA], the “% survival at 5 min” value (Helicobacter pylori; strain ATCC43504, EDTA 1.0 mM, pH 2.5, first of two experiments (initial 8.6 × 10^4 cfu/ml)) is reported as 0.023%, the “% survival at 5 min” value (Helicobacter pylori; strain ATCC43504, EDTA 1.0 mM, pH 2.5, second of two experiments (initial 9.82 × 10^5 cfu/ml)) is reported as 0.013% and the “% survival at 5 min” value (Helicobacter pylori; strain ATCC43504, EDTA 1.0 mM, pH 3.0, first of two experiments (initial 8.6 × 10^4 cfu/ml)) is reported as less than 0.021%. The “% survival at 5 min” value (Helicobacter pylori; strain ATCC43504, EDTA 1.0 mM, pH 3.0, second of two experiments (initial 9.82 × 10^5 cfu/ml)) was less than 0.001%, the “% survival at 5 min” value (Helicobacter pylori; strain ATCC43504, EDTA 1.0 mM, pH 3.5, first of two experiments (initial 8.6 × 10^4 cfu/ml)) was 94.2% and the “% survival at 5 min” value (Helicobacter pylori; strain ATCC43504, EDTA 1.0 mM, pH 3.5, second of two experiments (initial 9.82 × 10^5 cfu/ml)) was 0.015%. For the same molecule, the “% survival at 5 min” value (Helicobacter pylori; strain ATCC43504, EDTA 1.0 mM, pH 4.0, first of two experiments (initial 8.6 × 10^4 cfu/ml)) was 11.6%, the “% survival at 5 min” value (Helicobacter pylori; strain ATCC43504, EDTA 1.0 mM, pH 4.0, second of two experiments (initial 9.82 × 10^5 cfu/ml)) was 16.5% and the “% survival at 5 min” value (Helicobacter pylori; strain ATCC43504, EDTA 1.0 mM, pH 5.0, first of two experiments (initial 8.6 × 10^4 cfu/ml)) was 10.0%. For the same molecule, the “% survival at 5 min” value (Helicobacter pylori; strain ATCC43504, EDTA 1.0 mM, pH 5.0, second of two experiments (initial 9.82 × 10^5 cfu/ml)) was 100%, the “% survival at 5 min” value (Helicobacter pylori; strain ATCC43526, pH 7.0, EDTA 1.0 mM, initial 3.40 × 10^4 cfu/ml) was 94.1% and the “% survival at 5 min” value (Helicobacter pylori; strain ATCC43526, pH 7.0, EDTA 10 mM, initial 3.40 × 10^4 cfu/ml) was 21.0%. The “% survival at 5 min” value (Helicobacter pylori; strain ATCC43526, pH 7.0, EDTA 100 mM, initial 3.40 × 10^4 cfu/ml) was 1.62%, the “% survival at 5 min” value (Helicobacter pylori; strain ATCC43579, pH 5.0, EDTA 1.0 mM, initial 2.04 × 10^5 cfu/ml) was 13.63% and the “% survival at 5 min” value (Helicobacter pylori; strain ATCC43579, pH 5.0, EDTA 10 mM, initial 2.04 × 10^5 cfu/ml) was 8.82%. For the same molecule, the “% survival at 5 min” value (Helicobacter pylori; strain ATCC43579, pH 5.0, EDTA 100 mM, initial 2.04 × 10^5 cfu/ml) was 0.43%, the “% survival at 1 min” value (Escherichia coli; 0.1% w/v acetate pH 3.5, nisin 100 μg/ml and/or EDTA 1.0 mM where present, initial 2 × 10^7 cfu/ml) was 40% and the “% survival at 1 min” value (Escherichia coli; 0.1% w/v lactate pH 3.5, nisin 100 μg/ml and/or EDTA 1.0 mM where present, initial 5 × 10^7 cfu/ml) was 5.1%. The “% survival at 1 min” value (Escherichia coli; [1]) was 56.8%, the “% survival at 1 min” value (Escherichia coli; 0.3% w/v acetate pH 3.5, nisin 100 μg/ml and/or EDTA 1.0 mM where present, initial 2 × 10^7 cfu/ml) was 25% and the “% survival at 1 min” value (Escherichia coli; 0.3% w/v lactate pH 3.5, nisin 100 μg/ml and/or EDTA 1.0 mM where present, initial 5 × 10^7 cfu/ml) was 0.46%. The “% survival at 1 min” value (Escherichia coli; [2]) was 63.6%, the “% survival at 1 min” value (Escherichia coli; 1.0% w/v acetate pH 3.5, nisin 100 μg/ml and/or EDTA 1.0 mM where present, initial 2 × 10^7 cfu/ml) was 25% and the “% survival at 1 min” value (Escherichia coli; 1.0% w/v lactate pH 3.5, nisin 100 μg/ml and/or EDTA 1.0 mM where present, initial 5 × 10^7 cfu/ml) was 0.91%. For the same molecule, the “% survival at 1 min” value (Escherichia coli; [3]) was 46.2%, the “% survival at 1 min” value (Escherichia coli; 3.0% w/v acetate pH 3.5, nisin 100 μg/ml and/or EDTA 1.0 mM where present, initial 2 × 10^7 cfu/ml) was 10.7% and the “% survival at 1 min” value (Escherichia coli; 3.0% w/v lactate pH 3.5, nisin 100 μg/ml and/or EDTA 1.0 mM where present, initial 5 × 10^7 cfu/ml) was 1.58%. For the same molecule, the “% survival at 1 min” value (Escherichia coli; [4]) was 43.2%, the “survival of E. coli on exposure to the agent by itself” value (Escherichia coli; agent by itself) was “unaffected” and the “% survival at 1 min” value (Escherichia coli; pH 2.0, 20 mM Na acetate buffer, nisin 100 μg/ml and/or EDTA 1.0 mM, initial 4 × 10^7 cfu/ml) was 0.07%. For the same molecule, the “% survival at 1 min” value (Escherichia coli; pH 3.0, 20 mM Na acetate buffer, nisin 100 μg/ml and/or EDTA 1.0 mM, initial 4 × 10^7 cfu/ml) was 5.41%.
In the case of `O=C(O)CCC(=O)O` [Succinate, succinate], the “% survival at 1 min” value (Escherichia coli; [1]) is reported as 85.5%, the “% survival at 1 min” value (Escherichia coli; [2]) is reported as 29.9% and the “% survival at 1 min” value (Escherichia coli; [3]) is reported as 36.7%. The “% survival at 1 min” value (Escherichia coli; [4]) was 13.9%.
